Experimental data from US20030119895A1, “Methods using a combination of a 3-heteroaryl-2-indolinone and a cyclooxygenase-2 inhibitor for the treatment of neoplasia” (Pharmacia Corporation, priority 1998, published 2003).

Experiments:
[1] = tested on: HUV-EC-C cells (human umbilical vein endothelial cells); experiment: HUV-EC-C Assay, a-FGF (ECGF)-stimulated [3H] thymidine incorporation; type: cell-based; conditions: Mitogenesis in Endothelial Cells
Description: The following protocol may also be used to measure the composition's activity:
1. […] After cells have detached from the flask, add an equal volume of assay medium and transfer to a 50 ml sterile centrifuge tube (Fisher Scientific; catalogue no. 05-539-6).
2. Wash the cells with about 35 ml assay medium in the 50 ml sterile centrifuge, tube by adding the assay medium, centrifuge for 10 minutes at approximately 200× g, aspirate the supernatant, and resuspend with 35 ml D-PBS. Repeat the wash two more times with D-PBS, resuspend the cells in about 1 ml assay medium/15 cm^2 of tissue culture flask. Assay medium consists of F12K medium (Gibco BRL; catalogue no. 21127-014)+0.5% heat-inactivated fetal bovine serum. Count the cells with a Coulter Counter.RTM.v Coulter Electronics, Inc.) and add assay medium to the cells to obtain a concentration of 0.8-1.0×10^5 cells/ml.
3. Add cells to 96-well flat-bottom plates at 100 μl/well or 0.8-1.0×10^4 cells/well; incubate about 24 h at 37° C., 5% CO2.
1. Make up two-fold drug titrations in separate 96-well plates, generally 50 μM on down to 0 μM. Use the same assay medium as mentioned in day 0, step 2 above. Titrations are made by adding […] of drug at 200 μM (4× the final well concentration) to the top well of a particular plate column. Since the stock drug concentration is usually 20 mM in DMSO, the 200 μM drug concentration contains 2% DMSO. Therefore, diluent made up to 2% DMSO in assay medium (F12K+0.5% fetal bovine serum) is used as diluent for the drug titrations in order to dilute the drug but keep the DMSO concentration constant. Add this diluent to the remaining wells in the column at 60 μl/well. Take 60 μl from the 120 μl of 200 μM drug dilution in the top well of the column and mix with the 60 μl in the second well of the column. Take 60 μl from this well and mix with the 60 μl in the third well of the column, and so on until two-fold titrations are completed. When the next-to-the-last well is mixed, take 60 μl of the 120 μl in this well and discard it. Leave the last well with 60 μl of DMSO/media diluent as a non-drug-containing control. Make 9 columns of titrated drug, enough for triplicate wells each for 1) VEGF (obtained from Pepro Tech Inc., catalogue no. 100-200, 2) endothelial cell growth factor (ECGF) (also known as acidic fibroblast growth factor, or aFGF) (obtained from Boehringer Mannheim Biochemica, catalogue no. 1439 600), and assay media control. ECGF comes as a preparation with sodium heparin.
2. Transfer 50 μl/well of the drug dilutions to the 96-well assay plates containing the 0.8-1.0×10^4 cells/100 μl/well of the HUV-EC-C cells from day 0 and […] incubate ~2 h at 37° C., 5% CO2.
3. In triplicate, add 50 μl/well of 80 ng/ml VEGF, 20 ng/ml ECGF, or media control to each drug condition. As with the drugs, the growth factor concentrations are 4× the desired final concentration. Use the assay media from day 0 step 2 to make the concentrations of growth factors. Incubate approximately 24 hours at 37° C., 5% CO2. Each well will have 50 μl drug dilution, 50 μl growth factor or media, and 100 ul cells,=200 ul/well total. Thus the 4× concentrations of drugs and growth factors become 1× once everything has been added to the wells.
1. Add ^3H-thymidine (Amersham; catalogue no. TRK-686) at 1 μCi/well (10 μl/well of 100 μCi/ml solution made up in RPMI media+10% heat-inactivated fetal bovine serum) and incubate about 24 h at 37° C., 5% CO2.
Note: ^3H-thymidine is made up in RPMI media because all of the other applications for which we use the ^3H-thymidine involve experiments done in RPMI. The media difference at this step is probably not significant. RPMI was obtained from Gibco BRL, catalogue no. 11875-051.
1. Freeze plates overnight at −20° C.
1. Thaw plates and harvest with a 96-well plate harvester (Tomtec Harvester 96.RTM.) onto filter mats (Wallac; catalogue no. 1205-401); read counts on a Wallac Betaplate™ liquid scintillation counter.

[2] = tested on: HUV-EC-C cells (human umbilical vein endothelial cells); experiment: HUV-EC-C Assay, VEGF-stimulated [3H] thymidine incorporation; type: cell-based; conditions: Mitogenesis in Endothelial Cells
Description: Use the same assay medium as mentioned in day 0, step 2 above. Titrations are made by adding 90 μl/well of drug at 200 μM (4× the final well concentration) to the top well of a particular plate column. Since the stock drug concentration is usually 20 mM in DMSO, the 200 μM drug concentration contains 2% DMSO. Therefore, diluent made up to 2% DMSO in assay medium (F12K+0.5% fetal bovine serum) is used as diluent for the drug titrations in order to dilute the drug but keep the DMSO concentration constant. Add this diluent to the remaining wells in the column at 60 μl/well. Take 60 μl from the 120 μl of 200 μM drug dilution in the top well of the column and mix with the 60 μl in the second well of the column. Take 60 μl from this well and mix with the 60 μl in the third well of the column, and so on until two-fold titrations are completed. When the next-to-the-last well is mixed, take 60 μl of the 120 μl in this well and discard it. Leave the last well with 60 μl of DMSO/media diluent as a non-drug-containing control. Make 9 columns of titrated drug, enough for triplicate wells each for 1) VEGF (obtained from Pepro Tech Inc., catalogue no. 100-200, 2) endothelial cell growth factor (ECGF) (also known as acidic fibroblast growth factor, or aFGF) (obtained from Boehringer Mannheim Biochemica, catalogue no. […] ECGF comes as a preparation with sodium heparin.
Transfer 50 μl/well of the drug dilutions to the 96-well assay plates containing the 0.8-1.0×10^4 cells/100 μl/well of the HUV-EC-C cells from day 0 and 20 incubate ~2 h at 37° C., 5% CO2.

## COc1ccccc1C=C1C(=O)Nc2ccccc21 [SU4949, 3-(2-Methoxybenzylidenyl)-2-indolinone]
[1]
  IC50: 3.7 µM
[2]
  IC50: 3.4 µM

## Cc1c(C=O)[nH]c(C=C2C(=O)Nc3ccccc32)c1C [SU5405, 3-[(3,4-Dimethyl-2-formylpyrrole-5-yl)methylene)-2-indolinone]
[1]; Homo sapiens, HUVEC
  IC50: 0.6 µM
[2]; Homo sapiens, HUVEC
  IC50: 0.9 µM

## COc1cccc(C=C2C(=O)Nc3ccccc32)c1OC [SU4794, 3-(2,3-dimethoxybenzylidenyl)-2-indolinone]
[1]; Homo sapiens, HUVEC
  IC50: 35.7 µM
[2]; Homo sapiens, HUVEC
  IC50: 4.8 µM

## CCOC(=O)c1c[nH]c(C=C2C(=O)Nc3ccccc32)c1C [SU5463]
[1]; Homo sapiens, HUVEC
  IC50: 7.9 µM
[2]; Homo sapiens, HUVEC
  IC50: 0.14 µM

## O=C1Nc2ccccc2C1=Cc1ccc(I)o1 [SU5409]
[2]
  IC50: 26 µM

## O=C1Nc2ccccc2C1=Cc1ccc(Cl)c(Cl)c1 [SU5201, 3-(3,4-Dichlorobenzylidenyl)-2-indolinone]
[1]
  IC50: 2.3 µM
[2]
  IC50: 2.5 µM

## O=C1Nc2ccccc2C1=Cc1sccc1Br [SU5418, 3-[(3-Bromothiene-2-yl)methylene]-2-indolinone]
[1]; Homo sapiens, HUVEC
  IC50: 40 µM
[2]; Homo sapiens, HUVEC
  IC50: 13.6 µM

## O=C1Nc2ccccc2C1=Cc1ccc(Br)o1 [SU5438, 3-[(5-Bromofuran-2-yl)methylene]-2-indolinone]
[1]; Homo sapiens, HUVEC
  IC50: 33 µM
[2]; Homo sapiens, HUVEC
  IC50: 39.8 µM

## CCCCN(CCCC)c1ccc(C=C2C(=O)Nc3ccccc32)cc1 [SU4979, 3-(4-Di-n-butylaminobenzylidenyl)-2-indolinone]
[1]; Homo sapiens, HUVEC
  IC50: 4.9 µM
[2]; Homo sapiens, HUVEC
  IC50: 4.4 µM

## CCOC(=O)CCc1c(C(=O)OCC)[nH]c(C=C2C(=O)Nc3ccccc32)c1CC(=O)OCC [SU5454, 3-[(5-Ethoxycarbonyl-4-ethoxycarbonylethyl-3-ethoxycarbonylmethylpyrrol-2-yl)methylene]-2-indolinone]
[1]; Homo sapiens, HUVEC
  IC50: 3.4 µM
[2]; Homo sapiens, HUVEC
  IC50: 3.8 µM

## Cc1cc(C=C2C(=O)Nc3ccccc32)oc1C [SU5421, 3-[(2,3-Dimethylfuran-5-yl)methylene]-2-indolinone]
[2]; Homo sapiens, HUVEC
  IC50: 11.4 µM

## O=C1Nc2ccccc2C1=Cc1ccc(-c2cc(C(F)(F)F)cc(C(F)(F)F)c2)o1 [SU5217]
[1]
  IC50: 10.5 µM
[2]
  IC50: 9.6 µM

## Cc1cc(C=C2C(=O)Nc3ccccc32)[nH]n1 [SU5472, 3-[(3-Methylpyrazol-5-yl)methylene]-2-indolinone]
[1]; Homo sapiens, HUVEC
  IC50: 5 µM
[2]; Homo sapiens, HUVEC
  IC50: 2 µM

## O=C1Nc2ccccc2C1=Cc1ccc([N+](=O)[O-])o1 [SU5432, 3-[(2-Nitrofuran-5-yl)methylene]-2-indolinone]
[1]; Homo sapiens, HUVEC
  IC50: 0.14 µM
[2]; Homo sapiens, HUVEC
  IC50: 0.16 µM

## CCc1c(C=C2C(=O)Nc3ccccc32)[nH]c(C(=O)O)c1C [SU5455, 3-[(5-Carboxy-3-ethyl-4-methylpyrrol-2-yl)methylene]-2-indolinone]
[1]; Homo sapiens, HUVEC
  IC50: 20 µM
[2]; Homo sapiens, HUVEC
  IC50: 20 µM

## O=C1Nc2ccccc2C1=Cc1cccs1 [SU5208, 3-[(Thien-2-yl)methylene]-2-indolinone]
[1]; Homo sapiens, HUVEC
  IC50: 130 µM
[2]; Homo sapiens, HUVEC
  IC50: 2.9 µM

## O=C1Nc2ccccc2C1=Cc1cccn1-c1cc(Cl)cc(Cl)c1 [SU5461, 3-{[1-(3,5-Dichlorophenyl)pyrrol-2-yl]methylene}-2-indolinone]
[1]; Homo sapiens, HUVEC
  IC50: < 0.07 µM
[2]; Homo sapiens, HUVEC
  IC50: < 0.07 µM

## Cc1c[nH]c(C=C2C(=O)Nc3ccccc32)c1C [SU5406, 3-[(3,4-Dimethylpyrrol-2-yl)methylene]-2-indolinone]
[2]; Homo sapiens, HUVEC
  IC50: < 0.8 µM

## CSc1ccc(C=C2C(=O)Nc3ccccc32)s1 [SU5419, 3-[(2-Methylmercaptothien-5-yl)methylene]-2-indolinone]
[2]; Homo sapiens, HUVEC
  IC50: 0.7 µM

## O=C1Nc2ccccc2C1=Cc1ccco1 [SU5429, 3-[(Furan-2-yl)methylene]-2-indolinone]
[2]; Homo sapiens, HUVEC
  IC50: 27.6 µM

## O=C1Nc2ccccc2C1=Cc1ccco1 [SU4798, 3-[(furan-2-yl)methylene]-2-indolinone]
[2]; Homo sapiens, HUVEC
  IC50: 43.2 µM

## O=C1Nc2ccc(Cl)cc2C1=Cc1ccc(Br)cc1 [SU4972, 3-(4-Bromobenzylidenyl)-5-chloro-2-indolinone]
[1]
  IC50: 1.4 µM

## CC(=O)Nc1ccc(C=C2C(=O)Nc3ccccc32)cc1 [SU4799, 3-(4-acetamidobenzylidenyl)-2-indolinone]
[2]; Homo sapiens, HUVEC
  IC50: 19.9 µM
